Reference: patent US5661136A, “2-halo-2'-fluoro ARA adenosines as antinoplastic agents” (priority 1994, dated 1997)

Assays:
DNA polymerase α = target: T1, DNA polymerase α (Homo sapiens, UniProt P09884); conditions: incorporated 5'-monophosphate; cited from earlier work
T1 sequence (P09884 1-1462): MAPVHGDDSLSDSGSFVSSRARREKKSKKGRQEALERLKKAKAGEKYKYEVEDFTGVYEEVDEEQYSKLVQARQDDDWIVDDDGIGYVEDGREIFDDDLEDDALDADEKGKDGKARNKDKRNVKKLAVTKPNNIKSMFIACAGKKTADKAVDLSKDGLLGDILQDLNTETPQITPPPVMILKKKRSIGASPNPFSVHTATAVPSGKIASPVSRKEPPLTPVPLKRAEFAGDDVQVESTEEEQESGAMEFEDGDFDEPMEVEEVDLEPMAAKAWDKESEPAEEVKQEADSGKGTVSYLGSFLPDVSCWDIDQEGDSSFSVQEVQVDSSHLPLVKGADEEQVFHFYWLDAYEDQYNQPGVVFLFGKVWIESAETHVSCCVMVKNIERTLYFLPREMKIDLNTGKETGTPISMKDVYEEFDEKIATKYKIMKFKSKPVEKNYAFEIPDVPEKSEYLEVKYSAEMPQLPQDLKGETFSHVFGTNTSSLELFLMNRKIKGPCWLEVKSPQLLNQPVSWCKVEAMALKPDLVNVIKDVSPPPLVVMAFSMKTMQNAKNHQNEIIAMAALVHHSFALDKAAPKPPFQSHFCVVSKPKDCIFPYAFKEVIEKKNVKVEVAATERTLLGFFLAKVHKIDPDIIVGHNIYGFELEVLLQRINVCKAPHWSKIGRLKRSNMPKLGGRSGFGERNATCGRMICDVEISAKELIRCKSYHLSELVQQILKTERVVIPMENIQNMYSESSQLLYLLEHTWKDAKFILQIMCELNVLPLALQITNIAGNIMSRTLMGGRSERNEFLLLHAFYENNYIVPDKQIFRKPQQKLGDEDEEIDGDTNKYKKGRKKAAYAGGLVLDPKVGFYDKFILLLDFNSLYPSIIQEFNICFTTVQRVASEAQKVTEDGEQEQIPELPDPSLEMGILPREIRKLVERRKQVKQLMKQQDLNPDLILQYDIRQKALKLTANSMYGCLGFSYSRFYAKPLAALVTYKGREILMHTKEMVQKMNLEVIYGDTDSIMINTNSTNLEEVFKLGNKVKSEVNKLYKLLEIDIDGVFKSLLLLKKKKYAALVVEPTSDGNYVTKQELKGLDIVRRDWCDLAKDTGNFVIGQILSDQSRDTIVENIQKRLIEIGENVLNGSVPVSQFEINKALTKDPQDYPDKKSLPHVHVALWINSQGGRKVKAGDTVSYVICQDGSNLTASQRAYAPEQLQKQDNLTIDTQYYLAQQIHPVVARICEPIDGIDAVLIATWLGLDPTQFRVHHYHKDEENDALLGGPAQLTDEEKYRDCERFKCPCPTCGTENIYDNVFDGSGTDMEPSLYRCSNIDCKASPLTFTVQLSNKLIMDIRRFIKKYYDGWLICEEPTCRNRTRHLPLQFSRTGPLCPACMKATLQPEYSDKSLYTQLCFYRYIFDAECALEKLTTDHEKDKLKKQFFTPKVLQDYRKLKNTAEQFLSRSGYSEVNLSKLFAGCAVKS

HIV (strain IIIB) = experiment: Activity against HIV in cell culture; assay type: cell-based; conditions: CEM or MT cell lines in culture

Row | SMILES | inhibition of further elongation of the DNA chain after incorporation by DNA polymerase α (DNA polymerase α) | activity against HIV (strain IIIB) (HIV (strain IIIB))
1 | Nc1nc(Cl)nc2c1ncn2[C@H]1C[C@H](O)[C@@H](COP(=O)(O)O)O1 [2-chloro-2'-deoxyadenosine 5'monophosphate] | did not inhibit the further elongation of the DNA chain to the degree that was seen with the incorporation of either | 
2 | Nc1nc(F)nc2c1ncn2[C@@H]1O[C@H](CO)C[C@@H]1F [compound 4b, 2-Fluoro-9-(2-3-dideoxy-2-fluoro-β-D-arabinofuranosyl)-9H-purin-6-amine] |  | slight activity
